Reference: patent US9650395B2, “Antibacterial compounds and methods for use” (PTC Therapeutics, Inc., priority 2011, dated 2017)
Converted amounts (≈) assume the structure as drawn.

Experiments:
[1] = system: Gram-positive Staphylococcus aureus (S. aureus) 29213; assay: Antibacterial activity, microbroth dilution MIC, S. aureus 29213; assay type: cell-based; settings: Staphylococcus aureus; S. aureus 29213, microbroth dilution; read-out: MIC, 29213
[2] = system: resistant K. pneumoniae MXX1232 (MDR clinical isolate); assay: Antibacterial activity, MIC, resistant K. pneumoniae MXX1232; assay type: cell-based, Klebsiella pneumoniae; settings: Klebsiella pneumoniae; resistant K. pneumoniae MMX1232, MDR clinical isolate; read-out: MIC MMX1232
[3] = system: quinolone resistant E. coli LZ3111; assay: Antibacterial activity, MIC, quinolone resistant E. coli LZ3111; assay type: cell-based, Escherichia coli; settings: Escherichia coli, read-out: MIC, LZ3111
Source text: (§1) The antibacterial activity from a microbroth dilution method may be presented as the minimum inhibitory concentration (MIC in […]). The MIC value is the lowest concentration of a drug which prevents macroscopically visible bacterial growth under test conditions.
Mutations in these regions are known to confer a high level resistance to the quinolone class of antibiotics.

[4] = system: super sensitive Gram-negative Escherichia coli (E. coli) BAS849; assay: Antibacterial activity, microbroth dilution MIC, E. coli BAS849; assay type: cell-based; settings: Escherichia coli; E. coli BAS849, microbroth dilution; read-out: MIC, BAS849
[5] = system: resistant A. baumannii MXX2240 (MDR clinical isolate); assay: Antibacterial activity, MIC, resistant A. baumannii MXX2240; assay type: cell-based, Acinetobacter baumannii; settings: Acinetobacter baumannii, resistant A. baumannii MMX2240, MDR clinical isolate; read-out: MIC MMX2240
[6] = system: Acinetobacter baumannii (A. baumannii) BAA747; assay: Antibacterial activity, MIC, A. baumannii BAA747; assay type: cell-based; settings: Acinetobacter baumannii; A. baumannii BAA747; read-out: MIC BAA747
[7] = system: control Gram-negative E. coli 25922 strain; assay: Antibacterial activity, microbroth dilution MIC, E. coli 25922; assay type: cell-based, Escherichia coli; settings: Escherichia coli; E. coli 25922, microbroth dilution; read-out: MIC, 25922
[8] = system: Klebsiella pneumoniae (K. pneumoniae) 35657; assay: Antibacterial activity, MIC, K. pneumoniae 35657; assay type: cell-based; settings: Klebsiella pneumoniae
[9] = system: Pseudomonas aeruginosa (P. aeruginosa) 27853; assay: Antibacterial activity, MIC, P. aeruginosa 27853; assay type: cell-based; settings: Pseudomonas aeruginosa, P. aeruginosa 27853; read-out: MIC 27853
Source text: as §1
Antibacterial activity of test compounds against the Gram-negative bacterium Pseudomonas aeruginosa (P. aeruginosa) 27853 is shown in Table 5.

Row | Compound | MIC [1] | MIC [2] | MIC [3] | MIC [4] | MIC [5] | MIC [6] | MIC [7] | MIC [8] | MIC [9]
1 | CCc1cc(C(=O)O)c(=O)[nH]c1-c1ccc(N2CCC(O)(CC)C2)cc1 (stereo not drawn) [Cpd 232, 5-ethyl-6-[4-(3-ethyl-3-hydroxypyrrolidin-1-yl)phenyl]-2-oxo-1,2-dihydropyridine-3-carboxylic acid] | 3.5 to 12.5 µg/mL (≈ 9.82 to 35.1 µM) | 12.5 to 150 µg/mL (≈ 35.1 to 421 µM) | 12.5 to 150 µg/mL (≈ 35.1 to 421 µM) | < 1 µg/mL | 12.5 to 150 µg/mL (≈ 35.1 to 421 µM) | 1 to 3.5 µg/mL (≈ 2.81 to 9.82 µM) | 1 to 3.5 µg/mL (≈ 2.81 to 9.82 µM) | 1 to 3.5 µg/mL (≈ 2.81 to 9.82 µM) | 12.5 to 150 µg/mL (≈ 35.1 to 421 µM)
2 | CCc1c(-c2ccc(N3CCC(c4ccccn4)C3)cc2)[nH]c(=O)c(C(=O)O)c1O (stereo not drawn) [Cpd 286, 5-ethyl-4-hydroxy-2-oxo-6-{4-[3-(pyridin-2-yl)pyrrolidin-1-yl]phenyl}-1,2-dihydropyridine-3-carboxylic acid] | 1 to 3.5 µg/mL (≈ 2.47 to 8.63 µM) | 12.5 to 150 µg/mL (≈ 30.8 to 370 µM) | 12.5 to 150 µg/mL (≈ 30.8 to 370 µM) | < 1 µg/mL | 12.5 to 150 µg/mL (≈ 30.8 to 370 µM) | 3.5 to 12.5 µg/mL (≈ 8.63 to 30.8 µM) | 1 to 3.5 µg/mL (≈ 2.47 to 8.63 µM) | 12.5 to 150 µg/mL (≈ 30.8 to 370 µM) | 12.5 to 150 µg/mL (≈ 30.8 to 370 µM)
3 | CCc1c(-c2ccc(N3CCC(O)(CC)C3)cc2)[nH]c(=O)c(C(=O)O)c1O (stereo not drawn) [Cpd 288, 5-ethyl-6-[4-(3-ethyl-3-hydroxypyrrolidin-1-yl)phenyl]-4-hydroxy-2-oxo-1,2-dihydropyridine-3-carboxylic acid] | 1 to 3.5 µg/mL (≈ 2.69 to 9.4 µM) | 12.5 to 150 µg/mL (≈ 33.6 to 403 µM) | 3.5 to 12.5 µg/mL (≈ 9.4 to 33.6 µM) | < 1 µg/mL | 1 to 3.5 µg/mL (≈ 2.69 to 9.4 µM) | 1 to 3.5 µg/mL (≈ 2.69 to 9.4 µM) | 1 to 3.5 µg/mL (≈ 2.69 to 9.4 µM) | 3.5 to 12.5 µg/mL (≈ 9.4 to 33.6 µM) | 3.5 to 12.5 µg/mL (≈ 9.4 to 33.6 µM)
4 | CCc1c(-c2cnc(N(C)C)cn2)[nH]c(=O)c(C(=O)O)c1O [Cpd 312, 6-(5-(dimethylamino)pyrazin-2-yl)-5-ethyl-4-hydroxy-2-oxo-1,2-dihydropyridine-3-carboxylic acid] | 12.5 to 150 µg/mL (≈ 41.1 to 493 µM) | 12.5 to 150 µg/mL (≈ 41.1 to 493 µM) | 12.5 to 150 µg/mL (≈ 41.1 to 493 µM) | < 1 µg/mL | 12.5 to 150 µg/mL (≈ 41.1 to 493 µM) | 3.5 to 12.5 µg/mL (≈ 11.5 to 41.1 µM) | 12.5 to 150 µg/mL (≈ 41.1 to 493 µM) | 3.5 to 12.5 µg/mL (≈ 11.5 to 41.1 µM) | 12.5 to 150 µg/mL (≈ 41.1 to 493 µM)
5 | CCc1c(-c2cnc(N3CCCC3)cn2)[nH]c(=O)c(C(=O)O)c1O [Cpd 313, 5-ethyl-4-hydroxy-2-oxo-6-(5-(pyrrolidin-1-yl)pyrazin-2-yl)-1,2-dihydropyridine-3-carboxylic acid] | 12.5 to 150 µg/mL (≈ 37.8 to 454 µM) | 12.5 to 150 µg/mL (≈ 37.8 to 454 µM) | 12.5 to 150 µg/mL (≈ 37.8 to 454 µM) | < 1 µg/mL | 12.5 to 150 µg/mL (≈ 37.8 to 454 µM) | 3.5 to 12.5 µg/mL (≈ 10.6 to 37.8 µM) | 12.5 to 150 µg/mL (≈ 37.8 to 454 µM) | 3.5 to 12.5 µg/mL (≈ 10.6 to 37.8 µM) | 12.5 to 150 µg/mL (≈ 37.8 to 454 µM)
6 | CCc1c(-c2cnc(N3CCC(N(C)C)C3)cn2)[nH]c(=O)c(C(=O)O)c1O (stereo not drawn) [Cpd 314, 6-(5-(3-(dimethylamino)pyrrolidin-1-yl)pyrazin-2-yl)-5-ethyl-4-hydroxy-2-oxo-1,2-dihydropyridine-3-carboxylic acid] | 12.5 to 150 µg/mL (≈ 33.5 to 402 µM) | 12.5 to 150 µg/mL (≈ 33.5 to 402 µM) | 3.5 to 12.5 µg/mL (≈ 9.37 to 33.5 µM) | 3.5 to 12.5 µg/mL (≈ 9.37 to 33.5 µM) | 12.5 to 150 µg/mL (≈ 33.5 to 402 µM) | 12.5 to 150 µg/mL (≈ 33.5 to 402 µM) | 12.5 to 150 µg/mL (≈ 33.5 to 402 µM) | 12.5 to 150 µg/mL (≈ 33.5 to 402 µM) | 12.5 to 150 µg/mL (≈ 33.5 to 402 µM)
7 | Cc1c(-c2ccc(N3CCCC3)cn2)[nH]c(=O)c(C(=O)O)c1O [Cpd 315, 4-hydroxy-5-methyl-2-oxo-6-(5-(pyrrolidin-1-yl)pyridin-2-yl)-1,2-dihydropyridine-3-carboxylic acid] | 12.5 to 150 µg/mL (≈ 39.6 to 476 µM) | 12.5 to 150 µg/mL (≈ 39.6 to 476 µM) | 12.5 to 150 µg/mL (≈ 39.6 to 476 µM) | 1 to 3.5 µg/mL (≈ 3.17 to 11.1 µM) | 12.5 to 150 µg/mL (≈ 39.6 to 476 µM) | 12.5 to 150 µg/mL (≈ 39.6 to 476 µM) | 12.5 to 150 µg/mL (≈ 39.6 to 476 µM) | 12.5 to 150 µg/mL (≈ 39.6 to 476 µM) | 12.5 to 150 µg/mL (≈ 39.6 to 476 µM)
8 | Cc1c(-c2ccc(N3CCC(N(C)C)C3)cn2)[nH]c(=O)c(C(=O)O)c1O (stereo not drawn) [Cpd 316, 6-(5-(3-(dimethylamino)pyrrolidin-1-yl)pyridin-2-yl)-4-hydroxy-5-methyl-2-oxo-1,2-dihydropyridine-3-carboxylic acid] | 12.5 to 150 µg/mL (≈ 34.9 to 419 µM) | 12.5 to 150 µg/mL (≈ 34.9 to 419 µM) | 12.5 to 150 µg/mL (≈ 34.9 to 419 µM) | 12.5 to 150 µg/mL (≈ 34.9 to 419 µM) | 12.5 to 150 µg/mL (≈ 34.9 to 419 µM) | 12.5 to 150 µg/mL (≈ 34.9 to 419 µM) | 12.5 to 150 µg/mL (≈ 34.9 to 419 µM) | 12.5 to 150 µg/mL (≈ 34.9 to 419 µM) | 12.5 to 150 µg/mL (≈ 34.9 to 419 µM)
9 | Cc1c(-c2ccc(N3C[C@@H]4[C@@H](N)[C@@H]4C3)cn2)[nH]c(=O)c(C(=O)O)c1O [Cpd 317, 6-(5-((1R,5S,6s)-6-amino-3-azabicyclo[3.1.0]hexan-3-yl)pyridin-2-yl)-4-hydroxy-5-methyl-2-oxo-1,2-dihydropyridine-3-carboxylic acid] | 12.5 to 150 µg/mL (≈ 36.5 to 438 µM) | 12.5 to 150 µg/mL (≈ 36.5 to 438 µM) | 12.5 to 150 µg/mL (≈ 36.5 to 438 µM) | 3.5 to 12.5 µg/mL (≈ 10.2 to 36.5 µM) | 12.5 to 150 µg/mL (≈ 36.5 to 438 µM) | 12.5 to 150 µg/mL (≈ 36.5 to 438 µM) | 3.5 to 12.5 µg/mL (≈ 10.2 to 36.5 µM) | 3.5 to 12.5 µg/mL (≈ 10.2 to 36.5 µM) | 12.5 to 150 µg/mL (≈ 36.5 to 438 µM)
